Test results: US6565890B2, “Antiviral drugs containing heteropolyanions” (priority 2001, dated 2003)

Assays:
Assay type in all cases: cell-based
[1] = system: HIV (human immunodeficiency virus); test: Inhibition of HIV cytopathic effect, MTT colorimetric method; conditions: HIV produced with either MT-4 cells or Hela CD4 cells; in words, figures only in FIG. 2
Experimental: The antiviral effect against HIV (human immunodeficiency virus) and cytotoxicity of the PM-1001 and PM-1002 of this invention synthesized as described above were examined in comparison with those of K6[C0W12O40]. (called PM-1003), i.e., a heteropolyoxotungstate salt having perfect Keggin structure and conventional dextran sulfate (DS5000) and azidothymidine (AZT) respectively utilized because of their excellent anti-HIV effect. The inhibition of cell growth of HIV was measured according to the MTT colorimetric method.
The tissue culture cells were MT-4 and Hela CD4. The HIV was prepared from the supernatant solutions of the culture fluids of HIV-producing MT-4 and HIV cells, or Hela CD4 and HIV cells. […] In the MTT colorimetry, the absorbance is measured by means of a colorimeter using a wavelength of 540 nm, to obtain the vital cell number proportional to the absorbance. If all the cells are dead due to virus infection, the absorbance becomes almost zero.
(§1) With the concentration of each drug such as PM-1001 as a parameter, the cell growth rate was examined. […] That is, the drug concentration capable of improving the absorbance of […] up to 50% (to prevent cytocidal cell degeneration) is obtained and expressed in micromoles (μM). […] ND stands for “not determined”.

MT-4 and Hela CD4 cells = test: Cytotoxicity in the anti-HIV test, MTT colorimetric method; conditions: MT-4 cells or Hela CD4 cells; in words
Experimental: The tissue culture cells were MT-4 and Hela CD4. The HIV was prepared from the supernatant solutions of the culture fluids of HIV-producing MT-4 and HIV cells, or Hela CD4 and HIV cells. The media were 10% fetal calf serum, and for culturing, 0.2 ml of MT-4 cells or Hela CD4 cells and 0.2 ml of HIV cells were placed in each well of a 24-well culture tray. After virus adsorption (the virus infectivity titer was 100-CCID50 per about 10^5 cells), each drug such as PM-1001 diluted in a medium was added, to make a total amount of 1.0 ml, and the mixture was cultured at 37° C. for 4 to 6 days. As controls, cells not infected with HIV and cells untreated with any drug such as PM-1001 were used. […] In the MTT colorimetry, the absorbance is measured by means of a colorimeter using a wavelength of 540 nm, to obtain the vital cell number proportional to the absorbance. If all the cells are dead due to virus infection, the absorbance becomes almost zero.
as §1

[2] = system: DFV, FluV-A, RSV, PfluV, CDV, HIV; test: Spectrum of antiviral activity (FIG. 3), MTT colorimetric method; conditions: all viruses of FIG. 3; in words
in vitro = conditions: for respective culture cells; read-out: toxicity CC50

**Q.** With K6H4[(SbW9O33)2V3O3].29.5H2O [PM-1001] as the compound, how does the “potent efficacy against HIV” value [1] read?
**A.** very high potent efficacies

**Q.** What about the “adverse effects (cytotoxicity)” value (MT-4 and Hela CD4 cells) of the same compound?
**A.** low adverse effects

**Q.** What about the “antiviral effects (FIG. 3, EC50 comparison)” value [2] of the same compound?
**A.** remarkably excellent antiviral effects

**Q.** For `NC(=O)c1ncn([C@@H]2O[C@H](CO)[C@@H](O)[C@H]2O)n1` [ribavirin], which CC50 (in vitro) is on record?
**A.** > 100 µM

**Q.** Which results are given for K6H6[(SbW9O33)2V3O3].29.5H2O [PM-1002]?
**A.** potent efficacy against HIV [1]: very high potent efficacies; adverse effects (cytotoxicity) (MT-4 and Hela CD4 cells): low adverse effects; antiviral effects (FIG. 3, EC50 comparison) [2]: remarkably excellent antiviral effects
